Results published in the supplement of paper PMC5579334.

What was measured:
[1] = system: HS-Sch-2; assay: relative IC50 (inflection point of fitted dose-response curve, CellTiter-Glo viability, 72 h; top asymptote may be below 50% inhibition); higher = less potent
Procedure, shortened: (§1)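 After seeding 750–1000 cells per well of MPNST cell lines or primary human Schwann cells into 384-well plates preprinted with each compound at five concentrations in 10-fold steps, plates were kept 72 h at 37 °C, 5% CO2. Viability was read as CellTiter-Glo ATP luminescence relative to vehicle and positive-control wells, with duplicates averaged where present. The data were fitted with four-parameter logistic models. Drug sensitivity score and relative IC50, censored at the top concentration, derive from the fits, and percent inhibition refers to the top concentration.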

[2] = system: S462; assay: as above
Procedure, shortened: as §1

[3] = system: HSC1; assay: as above
Procedure, shortened: as §1

[4] = system: HSC2; assay: as above
Procedure, shortened: as §1

[5] = system: ST8814; assay: as above
Procedure, shortened: as §1

[6] = system: HS-PSS; assay: as above
Procedure, shortened: as §1

[7] = system: STS26T; assay: as above
Procedure, shortened: as §1

[8] = system: HSC1; assay: relative IC50 (inflection point of fitted dose-response curve, CellTox-Green cytotoxicity, 72 h; top asymptote may be below 50%); higher = less potent
Procedure, shortened: (§2)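 For 72 h at 37 °C, MPNST cell lines and primary human Schwann cells were exposed in 384-well plates to five 10-fold compound dilutions. CellTox-Green, added before seeding at a final 1:1000 dilution, gave fluorescence from DNA released by disrupted cells. Signals were scaled to vehicle and positive-control wells, cultures failing plate quality control were left out, and four-parameter logistic fits were applied. Relative IC50 and drug sensitivity score were derived from the fits, with IC50 censored at the top concentration.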

[9] = system: HSC2; assay: as above
Procedure, shortened: as §2

[10] = system: ST8814; assay: as above
Procedure, shortened: as §2

[11] = system: S1507-2; assay: as above
Procedure, shortened: as §2

[12] = system: HS-PSS; assay: as above
Procedure, shortened: as §2

[13] = system: STS26T; assay: as above
Procedure, shortened: as §2

[14] = system: YST-1; assay: relative IC50 (inflection point of fitted dose-response curve, CellTiter-Glo viability, 72 h; top asymptote may be below 50% inhibition); higher = less potent
Procedure, shortened: as §1

[15] = system: S1507-2; assay: as above
Procedure, shortened: as §1

SMILES	relative IC50 [1] [nM]	relative IC50 [2] [nM]	relative IC50 [3] [nM]	relative IC50 [4] [nM]	relative IC50 [5] [nM]	relative IC50 [6] [nM]	relative IC50 [7] [nM]	relative IC50 [8] [µM]	relative IC50 [9] [µM]	relative IC50 [10] [nM]	relative IC50 [11] [nM]	relative IC50 [12] [µM]	relative IC50 [13] [µM]	relative IC50 [14] [µM]	relative IC50 [15] [nM]
O=P1(NCCCl)OCCCN1CCCl (stereo not drawn) [Ifosfamide]	> 10000	> 10000	> 10000	> 10000	> 10000	> 10000	> 10000	> 10	> 10	> 10000	> 10000	> 10	> 10	–	–
Oc1ccc2c(c1)CC[C@H](c1ccccc1)[C@@H]2c1ccc(OCCN2CCCC2)cc1 [Lasofoxifene]	> 1000	–	> 1000	> 1000	> 1000	–	> 1000	> 1	> 1	> 1000	> 1000	> 1	> 1	> 1	> 1000
CC1(C)CCC(c2ccc(Cl)cc2)=C(CN2CCN(c3ccc(C(=O)NS(=O)(=O)c4ccc(N[C@H](CCN5CCOCC5)CSc5ccccc5)c(S(=O)(=O)C(F)(F)F)c4)cc3)CC2)C1 [Navitoclax]	547	–	–	1120	–	> 10000	–	1.54	0.983	1500	608	> 10	–	0.471	582
CC1(C)NC(=O)N(c2ccc([N+](=O)[O-])c(C(F)(F)F)c2)C1=O [Nilutamide]	–	> 10000	–	> 10000	> 10000	–	> 10000	> 10	> 10	> 10000	> 10000	> 10	> 10	> 10	> 10000
COC(=O)c1ccc2c(c1)NC(=O)/C2=C(\Nc1ccc(N(C)C(=O)CN2CCN(C)CC2)cc1)c1ccccc1 [Nintedanib]	3710	> 10000	> 10000	> 10000	> 10000	3970	> 10000	> 10	> 10	> 10000	> 10000	–	> 10	1.12	–
O=C(Nc1cccnc1)N1CCC(Cc2cccc(Oc3ccc(C(F)(F)F)cn3)c2)CC1 [PF-3845]	3070	–	1520	1430	–	1410	–	> 10	–	> 10000	> 10000	> 10	> 10	3.52	> 10000
O=C(NC[C@H](O)CO)c1ccncc1Nc1ccc(I)cc1F [Pimasertib]	962	507	730	846	971	2390	241	–	> 10	2060	2160	> 10	–	3.8	476
COc1cc(F)c(F)c(Nc2ccc(I)cc2F)c1NS(=O)(=O)C1(C[C@H](O)CO)CC1 [Refametinib]	1620	382	849	443	451	1800	306	> 10	–	1600	1860	3.27	–	–	362
CS(=O)(=O)c1ccc(C2=C(c3ccccc3)C(=O)OC2)cc1 [Rofecoxib]	> 10000	> 10000	> 10000	> 10000	> 10000	> 10000	> 10000	> 10	> 10	> 10000	> 10000	> 10	> 10	> 10	–
N[C@@H](CSC(c1ccccc1)(c1ccccc1)c1ccccc1)C(=O)O [S-trityl-L-cysteine]	–	–	–	> 40000	> 40000	–	–	> 40	> 40	> 40000	> 40000	–	> 40	–	> 40000
CN1CCN(CCOc2cc(OC3CCOCC3)c3c(Nc4c(Cl)ccc5c4OCO5)ncnc3c2)CC1 [Saracatinib]	2810	818	452	1530	1320	1570	1110	> 10	8.11	1550	99.5	–	–	–	1530
CC[C@H](CO)Nc1nc(NCc2ccccc2)c2ncn(C(C)C)c2n1 [Seliciclib]	–	3610	–	3990	> 10000	1670	–	> 10	> 10	> 10000	> 10000	–	–	> 10	> 10000
CC(=O)Nc1cccc(-n2c(=O)n(C3CC3)c(=O)c3c(Nc4ccc(I)cc4F)n(C)c(=O)c(C)c32)c1 [Trametinib]	48.6	9.9	10.6	18.5	16	28.1	7.59	> 0.25	–	46.3	45.8	> 0.25	–	> 0.25	15.2
COc1cc2c(NC3CCN(C(C)C)CC3)nc(N3CCC(F)(F)CC3)nc2cc1OCCCN1CCCC1 [UNC0642]	2880	2690	–	> 10000	2970	2600	3060	> 10	> 10	3020	2900	2.96	2.91	3.19	1940
Clc1ccc(Nc2nnc(Cc3ccncc3)c3ccccc23)cc1 [Vatalanib]	–	–	> 10000	–	> 10000	–	> 10000	> 10	> 10	> 10000	> 10000	> 10	> 10	–	> 10000
